20 molecules from PubChem BioAssay (NCI) can be followed below.

Several values for one entry are separate records, joined by “and”; a condition that tells them apart may be missing. Equal entries are not always repeated.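 The compound was tested at five concentrations on cells cultured in 96-well plates, with a 48-hour exposure period. The concentration for 50% growth inhibition is given as GI50. At the TGI there is no net growth.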

Assay in all cases: DTP human tumour cell line panel, 48 h
Assay [1] concerns CCRF-CEM leukemia.
Assay [2] relates to RXF 393 renal.
Assay [3] relates to IGROV1 ovarian.
Assay [4] relates to SN12C renal.
The subject of assay [5] is SF-268 CNS.
The test system of assay [6] is NCI/ADR-RES ovarian.
The subject of assay [7] is SNB-19 CNS.
The test system of assay [8] is U251 CNS.
The subject of assay [9] is NCI-H460 lung.
In assay [10] the test system is CAKI-1 renal.

Consider `O=c1[nH]c(F)nc2c1ncn2C1OC(CO)C(O)C1O` (centres undefined), for which the GI50 in [1], in [2], in [3], in assay [4], in [5] and in assay [6] was above 100 µM throughout. The GI50 in assay [7], in [8] and in assay [9] was above 100 µM in each case. The TGI in assay [1], in assay [2], in [3], in [4], in [5] and in assay [6] was above 100 µM in each case. In addition, the TGI in assay [7], in assay [8] and in assay [9] was above 100 µM throughout.
Regarding `Cn1c(=O)c2[nH]c(CCCc3ccc([N+](=O)[O-])cc3)nc2n(C)c1=O`, the TGI in assay [2], in assay [3], in assay [4], in [10], in [5] and in assay [6] was above 100 µM each time. Also, the TGI in [7], in [8] and in assay [9] was above 100 µM in each case.
In the case of `COC(=O)[C@@H](C)C[C@H](Cc1ccccc1)NC(=O)c1csc([C@@H](C[C@H](C(C)C)N(C)C(=O)C2(NC(=O)[C@H]3CCCCN3C)CCC2)OC(C)=O)n1`, the GI50 is 0.00533 µM and 0.0025 µM in assay [1]; 0.000863 µM and 0.0025 µM in assay [3]; 0.0087 µM and 0.017 µM in assay [4]; 0.00661 µM and 0.0175 µM in assay [5]; 16.9 µM in assay [6]; 0.00708 µM in assay [7]. Besides, the GI50 was 0.00545 µM and 0.00627 µM in [8]; 0.00549 µM and 0.0057 µM in assay [9]. Further, the total growth inhibition concentration (TGI) in assay [1], in assay [3], in [4], in assay [5], in assay [6] and in assay [8] was above 25 µM each time. Moreover, the TGI in assay [9] is above 25 µM.
`O=C1NC(=O)C(c2ccccc2)=C1Nc1ccccc1`: the GI50 in [2], in assay [3], in [4], in [10], in [5] and in assay [6] was above 25 µM each time. In addition, the GI50 in assay [7], in assay [8] and in [9] was above 25 µM each time. Besides, the TGI in [2], in [3], in [4], in assay [10], in [5] and in assay [6] was above 25 µM each time. Besides, the concentration for total growth inhibition (TGI) in assay [7], in assay [8] and in assay [9] was above 25 µM each time.
With `COc1cc2c(cc1OCCCCn1c(-c3cccs3)nc3ccccc31)N=C[C@@H]1CCCN1C2=O`, the GI50 in [1] was 0.247 µM; in assay [3], 0.754 µM; in assay [4], 2.5 µM; in assay [10], 0.949 µM; in assay [5], 1.8 µM; in assay [6] it was 3.24 µM. Also, the values for the GI50 in [7], in [8] and in assay [9] were 1.53 µM, 1.77 µM and 1.55 µM, respectively. Further, the total growth inhibition concentration (TGI) is 1.37 µM in assay [1]; 2.86 µM in assay [3]; 8.65 µM in assay [4]; 6.71 µM in assay [10]; 5.48 µM in assay [5]; 13.9 µM in assay [6]. The TGI amounted to 4.39 µM in assay [7], 10.1 µM in assay [8] and 4.38 µM in [9].
As for `COc1ccccc1NC(=O)C(=O)Cc1cnc2ccccc2n1`, the TGI in [1], in assay [2], in assay [4], in assay [10], in assay [5] and in assay [6] was above 100 µM throughout. The total growth inhibition concentration (TGI) in assay [7], in assay [8] and in assay [9] was above 100 µM in each case.
On to `CCOc1cc(/C=C/C(=O)C(C(=O)/C=C/c2ccc(OC(=O)CNc3nnc(C)s3)c(OCC)c2)C(=O)CNc2nnc(C)s2)ccc1OC(=O)CNc1nnc(C)s1`, for which the GI50 in assay [1] is 0.251 µM; in assay [2], 1.55 µM; in assay [4], 1.86 µM; in [10], 2.8 µM; in [5], 1.36 µM; in [6] it was 3.51 µM. Moreover, the values for the GI50 in assay [7], in assay [8] and in [9] were 2.52 µM, 0.976 µM and 1.97 µM, respectively. In addition, the TGI is 1.06 µM in [1]; 4.85 µM in assay [2]; 6.4 µM in assay [4]; above 29 µM in assay [10]; 4.13 µM in assay [5]; above 71.2 µM in assay [6]. Moreover, the results for the total growth inhibition concentration (TGI) in [7], in assay [8] and in assay [9] were 11.1 µM, 2.89 µM and 4.54 µM, respectively.
As for `COc1cc(/C=C/C(=O)c2c(C)nc3ccccc3c2C)ccc1OCCCCOc1cc2c(cc1OC)C(=O)N1CCC[C@H]1C=N2`, the 50% growth inhibitory concentration (GI50) in assay [1] was 0.225 µM; in assay [4], 0.509 µM; in assay [10] it was 0.331 µM; in [5], 0.277 µM; in [6] it was 3.06 µM; in assay [7], 0.872 µM. The figures for the GI50 in [8] and in assay [9] were 0.305 µM and 0.832 µM, respectively. The TGI in assay [1] is 1.48 µM; in [4], 9.87 µM; in assay [10], 1.44 µM; in [5], 1.04 µM; in [6], 40.4 µM; in assay [7], 2.57 µM. In addition, the values for the TGI in assay [8] and in [9] were 0.955 µM and 2.58 µM, respectively.
In the case of `Cc1ccc(NC(=O)c2nc(S(C)(=O)=O)oc2-c2ccc(F)cc2)cc1Nc1ccc2ncn(C)c(=O)c2c1`, the GI50 in [6] was 3.14 µM; in [7], 3.46 µM; in [8] it was 2.01 µM; in [9] it was 3.26 µM. In addition, the TGI stood at 15.7 µM in [6], 9.86 µM in assay [7], 3.84 µM in [8] and 10.9 µM in assay [9].
As to `CN(CSc1ccc(Cl)cc1)c1ccc(CSc2ccc(Cl)cc2)cc1`, the GI50 in [1] is 0.704 µM; in [2], 8.28 µM; in [4], 1.82 µM; in assay [10], 2.32 µM; in assay [5], 1.46 µM; in assay [6] it was 8 µM. The GI50 in assay [7] was 9.14 µM; in [8] it was 6.87 µM; in [9] it was 3.65 µM. The TGI is above 100 µM in assay [1]; 23.6 µM in [2]; 15.9 µM in assay [4]; 8.64 µM in [10]; 10.4 µM in assay [5]; 30.1 µM in assay [6]. Besides, the TGI amounted to 23.2 µM in assay [7], 23.5 µM in [8] and 15.6 µM in [9].
As to `CCC(C)CC(C)C(=O)c1c(O)ccn(O)c1=O` (centres undefined), the GI50 in [1] is 0.6 µM; in [2], 2.33 µM; in assay [3], 3.18 µM; in [4], 1.38 µM; in [5] it was 1.29 µM; in assay [6], 0.395 µM. The GI50 in assay [7] was 1.19 µM; in [8] it was 2.14 µM; in [9] it was 0.447 µM. In addition, the concentration for total growth inhibition (TGI) was above 100 µM in assay [1]; above 100 µM in [2]; 28.1 µM in [3]; 16.2 µM in assay [4]; 45.3 µM in assay [5]; 5.15 µM in [6]. The TGI in assay [7] is above 100 µM; in [8], above 100 µM; in assay [9], 11.6 µM.
As to `C/C(=N/NC(=S)N1CC2CCC(CC2)C1)c1cnccn1`, the TGI in assay [2] was determined as 7.78 µM; in assay [3] it was 2.62 µM; in [4], 14.4 µM; in [10], 11.3 µM; in [5] it was 11 µM; in [6], 0.054 µM. Besides, the concentration for total growth inhibition (TGI) came to 14.2 µM in assay [7], 4.28 µM in assay [8] and 0.273 µM in assay [9].
Regarding `NC(=O)CCc1ccccc1Oc1nccc(-c2c(-c3ccc(F)cc3)ncn2C2CCNCC2)n1`, the GI50 in [2], in assay [3], in assay [4], in [10], in [5] and in assay [6] was above 25 µM throughout. Besides, the GI50 in [7], in [8] and in assay [9] was above 25 µM throughout. The TGI in assay [2], in assay [3], in assay [4], in assay [10], in assay [5] and in assay [6] was above 25 µM each time. The TGI in assay [7], in [8] and in assay [9] was above 25 µM throughout.
For `CC(=O)OCC1OC([Se-])C(OC(C)=O)C(OC(C)=O)C1OC(C)=O.N#CCC[PH+](CCC#N)CCC#N.[Au+]` (centres undefined), the GI50 in [1] is 3.46 µM; in [2] it was 3.14 µM; in [3], 24.5 µM; in [4], 6.33 µM; in assay [10], 16.2 µM; in [5] it was 10.1 µM. For the same molecule, the figures for the GI50 in assay [7], in assay [8] and in [9] were 10.9 µM, 10.9 µM and 4.95 µM, respectively. Besides, the TGI is 27.3 µM in assay [1]; above 100 µM in [2]; above 81.6 µM in [3]; 31.9 µM in assay [4]; 55.6 µM in assay [10]; above 100 µM in [5]. Moreover, the values for the TGI in [7], in assay [8] and in assay [9] were above 77.9 µM, above 48.8 µM and 29.6 µM, respectively.
Take `O=c1nc(N2CCCC2)nc(N2CCCC2)s1`: the TGI in assay [1], in [2], in assay [3], in [4], in [10] and in [5] was above 100 µM throughout. The TGI in [7], in assay [8] and in [9] was above 100 µM each time.
For the molecule `O=C(CCN1CCC(CCO)CC1)Nc1ccc2c(c1)C(=O)c1ccc(NC(=O)CCN3CCC(CCO)CC3)cc1C2=O`, the total growth inhibition concentration (TGI) in assay [1] was 42.5 µM; in assay [2] it was above 100 µM; in assay [3] it was above 100 µM; in assay [4], above 100 µM; in assay [10], above 100 µM; in assay [5] it was 45.7 µM. Also, the values for the concentration for total growth inhibition (TGI) in assay [7], in assay [8] and in assay [9] were 68.8 µM, 23.8 µM and 15.5 µM, respectively.
Take `Cn1c2cc([N+](=O)[O-])ccc2c(=O)c2c(O)cc3c(c21)C=CC(C)(C)O3`: the concentration for total growth inhibition (TGI) in assay [1] is above 100 µM; in assay [2] it was 74.5 µM; in [3] it was above 100 µM; in assay [4], above 100 µM; in assay [10], above 100 µM; in [5], above 100 µM. In addition, the TGI in assay [7] is 73 µM; in assay [8] it was above 100 µM; in assay [9], above 100 µM.
In the case of `NC(CO)c1ccc(OCc2ccccc2)cc1` (centres undefined), the TGI in assay [1] was above 100 µM; in assay [2], above 100 µM; in assay [3], above 100 µM; in assay [4] it was above 100 µM; in assay [10], above 91.4 µM; in [5], above 100 µM. In addition, the TGI in assay [7], in assay [8] and in assay [9] was above 100 µM throughout.
For `CN(C)c1ccc(/C=c2\sc3nnc(-c4cccnc4)n3c2=O)cc1`, the TGI in assay [1], in assay [2], in assay [3], in [4], in [10] and in assay [5] was above 100 µM throughout. Besides, the total growth inhibition concentration (TGI) in assay [7], in assay [8] and in assay [9] was above 100 µM in each case.
Regarding `CS(=N)(=O)CCC(N)P(=O)(O)O` (centres undefined), the TGI in assay [2], in [3], in assay [4], in assay [10], in assay [5] and in assay [6] was above 100 µM in each case. Moreover, the TGI in [7], in assay [8] and in assay [9] was above 100 µM each time.

The GI50 is the concentration at which growth is held to half of that of the control. A word on the TGI: it is the concentration giving total growth inhibition.
